Laboratory results: patent US20020192262A1, “1'-Acetoxychavicol acetate for tuberculosis treatment” (National Science and Technology Development Agency, priority 2001, published 2002)

What was measured:
[1] = tested on: Mycobacterium tuberculosis H37Ra strain (ATCC 25166); experiment: Microplate Alamar Blue assay (MABA), growth inhibition; assay type: cell-based; conditions: two-fold serial dilution from 50 to 0.025 μg/ml, read-out: MIC against M. tuberculosis H37Ra
Description: Mycobacterium tuberculosis H37Ra strain (ATCC 25166) was grown in 100 ml of Middlebrook 7H9 broth supplemented with 0.2% glycerol, 1.0 gm/L of casitone, 10% OADC, and 0.05% Tween 80. The complete medium was referred to as 7H9GC-Tween. The bacteria were incubated in 500-ml flasks on a rotary shaker at 200 rpm and 37° C. until the optical density at 550 nm reached 0.4-0.5. The bacteria were washed twice with phosphate-buffered saline and then suspended in 20 ml of phosphate-buffered saline. The suspension was passed through an 8-μm-pore-size filter to eliminate clumps. The number of the bacteria in the filtrates was counted by plating the bacteria in Middlebrook 7H10 agar. The filtrates were stored at −80° C.
Anti-tuberculous testing was performed in a 96-well microplate as previously described (Collins, L. and Franzblau, S. G. 1997). […]
The plates were sealed with Parafilm and were incubated at 37° C. for 5 days. […] The results were recorded at 24 h post-reagent addition.
A blue color in the well was interpreted as no growth, reflecting the activity of the test compound in the well. A pink color was scored as growth and reflected the lack of activity of the test compound. A few wells appeared violet after 24 h of incubation, but they invariably changed to pink after another day of incubation and thus were scored as growth (while the adjacent blue wells remained blue). […]

Vero cells = conditions: African green monkey, 3 days
[2] = tested on: dermatophytic fungi such as Trichophyton mentagrophytes, Trichophyton rubrum, Trichophyton concentricum and Epidermophyton floccosum; conditions: cited from earlier work
[3] = tested on: Rhizopus stolonifer, Penicillium expansum, Aspergilus niger; conditions: compared with MIC for dermatophytic fungi; cited from earlier work
Candida albicans = conditions: cited from earlier work
Escherichia coli = conditions: cited from earlier work
Pseudomonas aeruginosa = conditions: cited from earlier work
Bacillus subtilis = conditions: cited from earlier work
Staphylococcus aureus = conditions: cited from earlier work
[4] = tested on: nitric oxide synthase production in RAW264 (mice macrophage) cell line; conditions: concentration of 250 (unit not given), cited from earlier work
[5] = tested on: tumor and cancer in mice experimental models; conditions: skin, bile duct, esophageal, large intestinal, oral cancer and liver tumor models; cited from earlier work
Ebstein-Barr virus = conditions: cited from earlier work
xanthine oxidase = xanthine oxidase (Homo sapiens, UniProt P47989); conditions: cited from earlier work
xanthine oxidase, sequence (P47989 whole entry, species assumed): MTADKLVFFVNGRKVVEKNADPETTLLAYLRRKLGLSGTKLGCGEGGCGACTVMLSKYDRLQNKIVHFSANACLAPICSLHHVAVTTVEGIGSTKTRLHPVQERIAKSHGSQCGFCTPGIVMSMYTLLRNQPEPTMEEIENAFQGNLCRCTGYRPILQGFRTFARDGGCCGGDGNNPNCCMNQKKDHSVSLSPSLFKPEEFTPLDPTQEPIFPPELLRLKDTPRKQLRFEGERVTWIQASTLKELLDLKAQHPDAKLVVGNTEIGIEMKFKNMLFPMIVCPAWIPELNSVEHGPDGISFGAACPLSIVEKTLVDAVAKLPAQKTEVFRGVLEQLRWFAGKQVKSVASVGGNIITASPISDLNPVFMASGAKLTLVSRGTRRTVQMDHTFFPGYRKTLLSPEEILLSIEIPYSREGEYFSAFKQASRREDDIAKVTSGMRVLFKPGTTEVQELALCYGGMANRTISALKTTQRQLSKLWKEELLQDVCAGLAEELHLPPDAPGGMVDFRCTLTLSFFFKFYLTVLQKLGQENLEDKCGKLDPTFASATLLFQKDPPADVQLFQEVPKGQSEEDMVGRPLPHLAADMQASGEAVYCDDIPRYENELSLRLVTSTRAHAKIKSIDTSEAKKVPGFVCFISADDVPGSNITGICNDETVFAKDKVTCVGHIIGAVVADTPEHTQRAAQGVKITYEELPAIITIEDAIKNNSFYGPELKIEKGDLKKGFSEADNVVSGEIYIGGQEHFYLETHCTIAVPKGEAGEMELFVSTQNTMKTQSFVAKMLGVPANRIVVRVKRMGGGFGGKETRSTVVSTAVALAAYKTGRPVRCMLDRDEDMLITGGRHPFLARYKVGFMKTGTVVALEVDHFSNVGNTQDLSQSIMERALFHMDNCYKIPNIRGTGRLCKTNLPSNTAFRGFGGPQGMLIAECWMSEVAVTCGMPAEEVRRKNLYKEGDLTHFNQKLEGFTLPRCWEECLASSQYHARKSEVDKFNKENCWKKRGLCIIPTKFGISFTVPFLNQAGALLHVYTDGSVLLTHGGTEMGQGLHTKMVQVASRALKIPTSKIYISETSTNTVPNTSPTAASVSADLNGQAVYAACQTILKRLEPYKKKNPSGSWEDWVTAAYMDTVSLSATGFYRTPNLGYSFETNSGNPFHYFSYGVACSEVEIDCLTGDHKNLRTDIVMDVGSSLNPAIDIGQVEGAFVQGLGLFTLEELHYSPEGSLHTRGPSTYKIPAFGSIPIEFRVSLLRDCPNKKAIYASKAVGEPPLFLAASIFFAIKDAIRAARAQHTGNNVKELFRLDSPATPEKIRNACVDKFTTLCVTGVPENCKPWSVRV

NADPH oxidase = conditions: cited from earlier work

Question: For `C=CC(OC(C)=O)c1ccc(OC(C)=O)cc1` (stereo not drawn) [1′-acetoxychavicol acetate, 1′-Acetoxychavicol acetate], which MIC [1] is on record?
Answer: The MIC was 0.1 µg/mL.

Question: And the “toxic level against Vero cells (concentration giving less than half the viable cells of negative control)” value (Vero cells)?
Answer: The value was 2.0 µg/mL.

Question: And the “minimal inhibitory concentrations (MIC) against dermatophytic fungi” value [2]?
Answer: Its value is 50 to 250 µg/mL.

Question: And the “growth inhibition of Rhizopus stolonifer, Penicillium expansum, Aspergilus niger” value [3]?
Answer: Its value is “inhibited the growth of several other fungi”.

Question: And the “growth inhibition of Candida albicans” value (Candida albicans)?
Answer: The value was “could not inhibit the growth”.

Question: And the “growth inhibition of Escherichia coli” value (Escherichia coli)?
Answer: Its value is “could not inhibit the growth”.

Question: What about the “growth inhibition of Pseudomonas aeruginosa” value (Pseudomonas aeruginosa) of the same molecule?
Answer: The value was “could not inhibit the growth”.

Question: And the “growth inhibition of Bacillus subtilis” value (Bacillus subtilis)?
Answer: Its value is “could not inhibit the growth”.

Question: And the “growth inhibition of Staphylococcus aureus” value (Staphylococcus aureus)?
Answer: The value was “could slightly inhibit the growth”.

Question: And the “inhibition of nitric oxide synthase production, lipopolysaccharide stimulated” value ([4]; 100 ng/ml bacterial lipopolysaccharide)?
Answer: The value was “could completely inhibit”.

Question: And the “inhibition of nitric oxide synthase production, interferon-γ stimulated” value ([4]; 100 ng/ml interferon-γ)?
Answer: Its value is 80%.

Question: What about the “inhibition of tumor and cancer formation” value [5] of the same molecule?
Answer: Its value is “can inhibit the formation of many tumor and cancer”.

Question: What about the “inhibition of activation of tumor virus” value (Ebstein-Barr virus) of the same molecule?
Answer: Its value is “could inhibit the activation of tumor virus”.

Question: And the “inhibition of the function of xanthine oxidase” value (xanthine oxidase)?
Answer: Its value is “could inhibit the function”.

Question: And the “inhibition of the function of NADPH oxidase” value (NADPH oxidase)?
Answer: The value was “could inhibit the function”.
